{"source": "patent US7632645B1", "about": "“EGF receptor transactivation by G-protein-coupled receptors requires metalloproteinase cleavage of proHB-EGF” (Max-Planck-Gesellschaft zur forderung der Wissenschaften …, priority 1999, dated 2009)", "key": {"SHC": {"tested_on": "SHC", "test": "SHC tyrosine phosphorylation in Rat-1/EP-R cells", "format": "cell-based", "details": "tyrphostin pretreatment (AG1478 250 nM, AG1295 1 μM), FIG. 1e"}, "EGFR": {"tested_on": "EGFR", "test": "EGFR tyrosine phosphorylation in PC-3 prostate carcinoma cells", "format": "cell-based, human", "details": "PC-3 cells starved for 36 hours; 3 minutes stimulation; FIG. 4f"}, "proHB-EGF [1]": {"tested_on": "proHB-EGF", "test": "Flow cytometry of cell surface proHB-EGF in non-transfected COS-7 cells", "format": "cell-based", "details": "within 10 minutes, FIG. 4c"}, "human EGFR (HERc)": {"tested_on": "human EGFR (HERc)", "test": "Intercellular transactivation: HERc tyrosine phosphorylation in Rat-1/M1R + Rat-1/HERc co-culture", "format": "cell-based", "details": "carbachol 1 mM; for effect on EGFR (HERc) tyrosine phosphorylation in response to M1R agonist carbachol: confluent co-cultures of Rat-1/M1R and Rat-1/HERc cells, preincubation, FIG. 2b, 2c"}, "proHB-EGF [2]": {"tested_on": "proHB-EGF", "format": "cell-based"}}, "data": [{"compound": "Cc1cc2ncc(-c3ccccc3)nc2cc1C", "note": "[AG1295]", "values": [{"measurement": "effect on SHC tyrosine phosphorylation following thrombin stimulation", "setting": "SHC", "value": "remained unaffected"}]}, {"compound": "COc1cc2ncnc(Nc3cccc(Cl)c3)c2cc1OC", "note": "[AG1478]", "values": [{"measurement": "effect on SHC tyrosine phosphorylation following thrombin stimulation", "setting": "SHC", "value": "completely blocked"}]}, {"compound": "CCCCCCCCCCCCCC(=O)O[C@@H]1[C@@H](C)[C@@]2(O)[C@@H](C=C(CO)C[C@]3(O)C(=O)C(C)=C[C@@H]23)[C@@H]2C(C)(C)[C@]12OC(C)=O", "note": "[TPA, tetradecanoyl-phorbol-13-acetate]", "values": [{"measurement": "induction of tyrosine phosphorylation of the EGFR by agonist", "setting": "EGFR", "value": "induce tyrosine phosphorylation"}, {"measurement": "content of cell surface proHB-EGF after addition of agonist", "setting": "proHB-EGF [1]", "value": "reduced"}]}, {"compound": "C[N+](C)(C)CCOC(N)=O", "note": "[carbachol]", "values": [{"measurement": "induction of tyrosine phosphorylation of HERc by agonist", "setting": "human EGFR (HERc); Rat-1/M1R + Rat-1/HERc co-culture, FIG. 2a", "value": "rapidly induced tyrosine phosphorylation"}, {"measurement": "proteolytic processing of membrane-anchored proHB-EGF upon agonist stimulation", "setting": "proHB-EGF [2]", "value": "rapid breakdown"}]}, {"compound": "[O-][Cl+2]([O-])O", "note": "[chlorate]", "values": [{"measurement": "effect on EGFR (HERc) tyrosine phosphorylation in response to M1R agonist carbachol", "setting": "human EGFR (HERc)", "value": "completely inhibited"}]}, {"compound": "EGF: epidermal growth factor, EGFR ligand used as control stimulus (NSDSECPLSHDGYCLHDGVCMYIEALDKYACNCVVGYIGERCQYRDLKWWELR; UniProt P01133 971-1023, looked up)", "values": [{"measurement": "induction of tyrosine phosphorylation of the EGFR by agonist", "setting": "EGFR", "value": "induce tyrosine phosphorylation"}, {"measurement": "content of cell surface proHB-EGF after addition of agonist", "setting": "proHB-EGF [1]", "value": "no effect"}]}, {"compound": "heparitinase", "values": [{"measurement": "effect on EGFR (HERc) tyrosine phosphorylation in response to M1R agonist carbachol", "setting": "human EGFR (HERc)", "value": "completely inhibited"}]}, {"compound": "lysophosphatidic acid [LPA]", "values": [{"measurement": "content of cell surface proHB-EGF after addition of agonist", "setting": "proHB-EGF [1]", "value": "reduced"}]}]}
